Like-named read-outs stand apart in the source and are kept apart here.
Legend:
[1] = molecular target: PI3K-δ (PI3K(p1108/p857) (h)) (Homo sapiens, UniProt O00329); experiment: Evaluation of inhibitory activity against PI3K-δ (HTRF kinase assay); format: biochemical; conditions: for inhibition at 0.01 µM: compound concentration 0.01 μM, read-out: EXP_VALUE(% Inhibition) PI3K-δ 0.01 μM; for inhibition at 0.1 µM: read-out: EXP_VALUE(% Inhibition) PI3K-δ 0.1 μM
Outline: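 HTRF read-out (665/620 nm ratio ×10000) used Eu-labelled anti-GST, GST-tagged GRP1 PH domain and streptavidin-allophycocyanin after EDTA/PIP3 stop.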

DNA-PK(h) = DNA-PK(h) (Homo sapiens, UniProt P78527); experiment: Evaluation of inhibitory activity against DNA-PK (HTRF kinase assay, GST-cMyc-p53 substrate); format: biochemical; conditions: for inhibition at 0.01 µM: compound concentration 0.01 μM, read-out: EXP_VALUE(% Inhibition) DNA-PK(h) 0.01 μM; for inhibition at 0.1 µM: read-out: EXP_VALUE(% Inhibition) DNA-PK(h) 0.1 μM
Outline: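 Human DNA-PK with 50 μM GST-cMyc-p53 substrate; reaction started with Mg/ATP, run 30 min at room temperature, stopped with EDTA. Phospho-Ser15 p53 detected by HTRF (Eu anti-phospho-Ser15, d2 anti-GST), signal = 10000×(Em 665/Em 620).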

Sequence of PI3K-δ (PI3K(p1108/p857) (h)) (O00329 whole entry, the tested form may be a part): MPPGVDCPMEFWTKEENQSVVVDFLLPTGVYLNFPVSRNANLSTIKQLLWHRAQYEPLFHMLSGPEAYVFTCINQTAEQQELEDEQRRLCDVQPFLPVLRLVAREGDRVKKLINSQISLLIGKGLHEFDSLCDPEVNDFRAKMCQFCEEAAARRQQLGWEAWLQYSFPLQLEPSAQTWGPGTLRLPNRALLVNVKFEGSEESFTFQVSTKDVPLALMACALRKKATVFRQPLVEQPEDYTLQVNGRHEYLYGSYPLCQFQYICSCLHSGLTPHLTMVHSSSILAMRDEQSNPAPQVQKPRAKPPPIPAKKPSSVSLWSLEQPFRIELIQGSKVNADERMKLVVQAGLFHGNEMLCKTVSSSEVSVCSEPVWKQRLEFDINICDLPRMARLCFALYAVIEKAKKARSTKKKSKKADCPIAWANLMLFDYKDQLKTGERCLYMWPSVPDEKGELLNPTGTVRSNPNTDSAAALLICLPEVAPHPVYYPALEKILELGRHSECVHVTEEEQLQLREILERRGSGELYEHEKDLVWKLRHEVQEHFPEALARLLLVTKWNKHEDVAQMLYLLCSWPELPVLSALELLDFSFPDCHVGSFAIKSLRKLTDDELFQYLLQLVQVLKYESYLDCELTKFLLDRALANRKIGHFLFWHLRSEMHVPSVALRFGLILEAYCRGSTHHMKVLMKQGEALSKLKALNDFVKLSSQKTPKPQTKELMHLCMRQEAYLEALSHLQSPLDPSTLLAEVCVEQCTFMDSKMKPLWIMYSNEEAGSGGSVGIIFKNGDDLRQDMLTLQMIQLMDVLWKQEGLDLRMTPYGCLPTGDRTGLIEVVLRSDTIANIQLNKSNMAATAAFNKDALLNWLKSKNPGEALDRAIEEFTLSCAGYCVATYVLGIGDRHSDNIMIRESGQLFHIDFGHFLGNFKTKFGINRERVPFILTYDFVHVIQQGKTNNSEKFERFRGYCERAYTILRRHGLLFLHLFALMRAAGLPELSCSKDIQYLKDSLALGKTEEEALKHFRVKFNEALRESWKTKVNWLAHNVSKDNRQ
Sequence of PI3K-δ (PI3K(p1108/p857) (h)) (P27986 whole entry partner, the tested form may be a part): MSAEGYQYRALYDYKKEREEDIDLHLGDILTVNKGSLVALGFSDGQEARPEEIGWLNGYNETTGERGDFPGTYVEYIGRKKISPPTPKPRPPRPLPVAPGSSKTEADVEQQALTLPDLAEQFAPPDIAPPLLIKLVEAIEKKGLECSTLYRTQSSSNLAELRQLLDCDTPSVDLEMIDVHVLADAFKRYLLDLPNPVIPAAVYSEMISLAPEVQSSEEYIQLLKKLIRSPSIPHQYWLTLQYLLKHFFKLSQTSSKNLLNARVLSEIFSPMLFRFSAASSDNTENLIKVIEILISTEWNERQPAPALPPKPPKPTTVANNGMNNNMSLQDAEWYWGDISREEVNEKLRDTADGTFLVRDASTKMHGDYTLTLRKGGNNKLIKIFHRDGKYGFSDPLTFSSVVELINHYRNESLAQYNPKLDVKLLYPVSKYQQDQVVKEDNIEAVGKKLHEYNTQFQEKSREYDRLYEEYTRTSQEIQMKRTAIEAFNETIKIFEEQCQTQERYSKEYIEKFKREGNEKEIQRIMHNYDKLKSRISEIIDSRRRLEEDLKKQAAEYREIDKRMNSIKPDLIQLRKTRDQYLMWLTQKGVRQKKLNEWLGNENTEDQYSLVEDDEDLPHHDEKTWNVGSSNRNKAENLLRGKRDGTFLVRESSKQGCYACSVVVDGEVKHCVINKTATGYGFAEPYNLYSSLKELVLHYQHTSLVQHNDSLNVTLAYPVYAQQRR

Row | SMILES | inhibition at 0.01 µM [1] | inhibition at 0.1 µM ([1]; compound concentration 0.1 μM) | inhibition at 0.01 µM (DNA-PK(h)) | inhibition at 0.1 µM (DNA-PK(h); compound concentration 0.1 μM) | inhibition at 0.1 µM ([1]; compound at 0.1 μM) | inhibition at 0.1 µM (DNA-PK(h); compound at 0.1 μM)
1 | C[C@H](Nc1ncnc2[nH]ccc(=O)c12)c1c(Cl)c2cccc(CO)c2c(=O)n1-c1ccccc1 [Example 355, (S)-4-((1-(4-chloro-8-(hydroxymethyl)-1-oxo-2-phenyl-1,2-dihydroisoquinolin-3-yl)ethyl)amino)pyrido[2,3-d]pyrimidin-5(8H)-one] | 78% | – | 47% | – | – | –
2 | C[C@H](Nc1ncnc2[nH]ccc(=O)c12)c1c(Cl)c2cccc(C3NCCS3)c2c(=O)n1-c1ccccc1 (stereo partly drawn) [Example 356, 4-(((1S)-1-(4-chloro-1-oxo-2-phenyl-8-(thiazolidin-2-yl)-1,2-dihydroisoquinolin-3-yl)ethyl)amino)pyrido[2,3-d]pyrimidin-5(8H)-one] | 62% | – | 34% | – | – | –
3 | C[C@H](Nc1ncnc2[nH]ccc(=O)c12)c1c(Cl)c2cccc(C(O)C(C)(C)C)c2c(=O)n1-c1ccccc1 (stereo partly drawn) [Example 357, 4-(((1S)-1-(4-chloro-8-(1-hydroxy-2,2-dimethylpropyl)-1-oxo-2-phenyl-1,2-dihydroisoquinolin-3-yl)ethyl)amino)pyrido[2,3-d]pyrimidin-5(8H)-one] | 11% | – | 15% | – | – | –
4 | C[C@H](Nc1ncnc2[nH]ccc(=O)c12)c1c(Cl)c2cccc(C3OCC(C)(C)CO3)c2c(=O)n1-c1ccccc1 [Example 358, (S)-4-((1-(4-chloro-8-(5,5-dimethyl-1,3-dioxan-2-yl)-1-oxo-2-phenyl-1,2-dihydroisoquinolin-3-yl)ethyl)amino)pyrido[2,3-d]pyrimidin-5(8H)-one] | 37% | – | -1% | – | – | –
5 | C[C@H](Nc1ncnc2[nH]ccc(=O)c12)c1c(Cl)c2cccc(COCC(C)(C)CO)c2c(=O)n1-c1ccccc1 [Example 359, (S)-4-((1-(4-chloro-8-((3-hydroxy-2,2-dimethylpropoxy)methyl)-1-oxo-2-phenyl-1,2-dihydroisoquinolin-3-yl)ethyl)amino)pyrido[2,3-d]pyrimidin-5(8H)-one] | 46% | – | 8% | – | – | –
6 | C[C@H](Nc1ncnc2[nH]ccc(=O)c12)c1c(Cl)c2cccc(C(C)(C)O)c2c(=O)n1-c1ccccc1 [Example 360, (S)-4-((1-(4-chloro-8-(2-hydroxypropan-2-yl)-1-oxo-2-phenyl-1,2-dihydroisoquinolin-3-yl)ethyl)amino)pyrido[2,3-d]pyrimidin-5(8H)-one] | 6% | – | -4% | – | – | –
7 | C[C@H](Nc1ncnc2[nH]ccc(=O)c12)c1c(Cl)c2cccc([C@@H](C)O)c2c(=O)n1-c1ccccc1 [Example 361, 4-(((S)-1-(4-chloro-8-((R)-1-hydroxyethyl)-1-oxo-2-phenyl-1,2-dihydroisoquinolin-3-yl)ethyl)amino)pyrido[2,3-d]pyrimidin-5(8H)-one] | 56% | – | 48% | – | – | –
8 | C[C@H](Nc1ncnc2[nH]ccc(=O)c12)c1c(Cl)c2cccc(OCC(F)(F)F)c2c(=O)n1-c1ccccc1 [Example 364, (S)-4-((1-(4-chloro-1-oxo-2-phenyl-8-(2,2,2-trifluoroethoxy)-1,2-dihydroisoquinolin-3-yl)ethyl)amino)pyrido[2,3-d]pyrimidin-5(8H)-one] | 29% | 76% | 21% | 82% | – | –
9 | C[C@H](Nc1ncnc2[nH]ccc(=O)c12)c1c(Cl)c2cccc(SCc3ccc(Cl)cc3)c2c(=O)n1-c1ccccc1 [Example 369, (S)-4-((1-(4-chloro-8-((4-chlorobenzyl)thio)-1-oxo-2-phenyl-1,2-dihydroisoquinolin-3-yl)ethyl)amino)pyrido[2,3-d]pyrimidin-5(8H)-one] | 5% | 27% | 14% | 54% | – | –
10 | C[C@H](Nc1ncnc2[nH]ccc(=O)c12)c1c(Cl)c2cccc(Sc3ccncc3)c2c(=O)n1-c1ccccc1 [Example 370, (S)-4-((1-(4-chloro-1-oxo-2-phenyl-8-(pyridin-4-ylthio)-1,2-dihydroisoquinolin-3-yl)ethyl)amino)pyrido[2,3-d]pyrimidin-5(8H)-one] | 69% | 96% | 39% | 76% | – | –
11 | CCCSc1cccc2c(Cl)c([C@H](C)Nc3ncnc4[nH]ccc(=O)c34)n(-c3ccccc3)c(=O)c12 [Example 372, (S)-4-((1-(4-chloro-1-oxo-2-phenyl-8-(propylthio)-1,2-dihydroisoquinolin-3-yl)ethyl)amino)pyrido[2,3-d]pyrimidin-5(8H)-one] | 3% | 19% | 38% | 79% | – | –
12 | C[C@H](Nc1ncnc2[nH]ccc(=O)c12)c1c(Cl)c2cccc(-c3ccc4c(c3)NC(=O)C(C)(C)O4)c2c(=O)n1-c1ccccc1 [Example 373, (S)-6-(4-chloro-1-oxo-3-(1-((5-oxo-5,8-dihydropyrido[2,3-d]pyrimidin-4-yl)amino)ethyl)-2-phenyl-1,2-dihydroisoquinolin-8-yl)-2,2-dimethyl-2H-benzo[b] [1,4]oxazin-3 (4H)-one] | – | 48% | – | 36% | – | –
13 | COc1cc(-n2ccc(=O)c3c(N[C@@H](C)c4c(Cl)c5ccccc5c(=O)n4-c4ccccc4)ncnc32)ccn1 [Example 374, (S)-4-((1-(4-chloro-1-oxo-2-phenyl-1,2-dihydroisoquinolin-3-yl)ethyl)amino)-8-(2-methoxypyridin-4-yl)pyrido[2,3-d]pyrimidin-5(8H)-one] | – | – | – | – | 21% | 14%

Continued, values first:

Row | inhibition at 0.01 µM [1] | inhibition at 0.1 µM ([1]; compound concentration 0.1 μM) | inhibition at 0.01 µM (DNA-PK(h)) | inhibition at 0.1 µM (DNA-PK(h); compound concentration 0.1 μM) | inhibition at 0.1 µM ([1]; compound at 0.1 μM) | inhibition at 0.1 µM (DNA-PK(h); compound at 0.1 μM) | SMILES
14 | 95% | 106% | 63% | 94% | – | – | CCc1cccc2c(Cl)c([C@H](C)Nc3ncnc4[nH]ccc(=O)c34)n(-c3ccccc3)c(=O)c12 [Example 354, (S)-4-((1-(4-chloro-8-ethyl-1-oxo-2-phenyl-1,2-dihydroisoquinolin-3-yl)ethyl)amino)pyrido[2,3-d]pyrimidin-5(8H)-one]
15 | 21% | 64% | 29% | 67% | – | – | C[C@H](Nc1ncnc2[nH]ccc(=O)c12)c1c(Cl)c2cccc(OCc3ccccc3)c2c(=O)n1-c1ccccc1 [Example 362, (S)-4-((1-(8-(benzyloxy)-4-chloro-1-oxo-2-phenyl-1,2-dihydroisoquinolin-3-yl)ethyl)amino)pyrido[2,3-d]pyrimidin-5(8H)-one]
16 | 26% | 76% | 35% | 80% | – | – | COCCOc1cccc2c(Cl)c([C@H](C)Nc3ncnc4[nH]ccc(=O)c34)n(-c3ccccc3)c(=O)c12 [Example 363, (S)-4-((1-(4-chloro-8-(2-methoxyethoxy)-1-oxo-2-phenyl-1,2-dihydroisoquinolin-3-yl)ethyl)amino)pyrido[2,3-d]pyrimidin-5(8H)-one]
17 | 31% | 84% | 28% | 65% | – | – | COc1cccc2c(Cl)c([C@H](C)Nc3ncnc4[nH]ccc(=O)c34)n(-c3ccccc3)c(=O)c12 [Example 365, (S)-4-((1-(4-chloro-8-methoxy-1-oxo-2-phenyl-1,2-dihydroisoquinolin-3-yl)ethyl)amino)pyrido[2,3-d]pyrimidin-5(8H)-one]
18 | 41% | 85% | 23% | 69% | – | – | COc1ccccc1Oc1cccc2c(Cl)c([C@H](C)Nc3ncnc4[nH]ccc(=O)c34)n(-c3ccccc3)c(=O)c12 [Example 366, (S)-4-((1-(4-chloro-8-(2-methoxyphenoxy)-1-oxo-2-phenyl-1,2-dihydroisoquinolin-3-yl)ethyl)amino)pyrido[2,3-d]pyrimidin-5(8H)-one]
19 | 51% | 93% | 21% | 67% | – | – | Cc1ccc(Oc2cccc3c(Cl)c([C@H](C)Nc4ncnc5[nH]ccc(=O)c45)n(-c4ccccc4)c(=O)c23)cc1 [Example 367, (S)-4-((1-(4-chloro-1-oxo-2-phenyl-8-(p-tolyloxy)-1,2-dihydroisoquinolin-3-yl)ethyl)amino)pyrido[2,3-d]pyrimidin-5(8H)-one]
20 | 72% | 94% | 50% | 85% | – | – | CC(Oc1cccc2c(Cl)c([C@H](C)Nc3ncnc4[nH]ccc(=O)c34)n(-c3ccccc3)c(=O)c12)c1ccncc1 (stereo partly drawn) [Example 368, 4-(((1S)-1-(4-chloro-1-oxo-2-phenyl-8-(1-(pyridin-4-yl)ethoxy)-1,2-dihydroisoquinolin-3-yl)ethyl)amino)pyrido[2,3-d]pyrimidin-5(8H)-one]
21 | 2% | 10% | 0% | 4% | – | – | C[C@H](Nc1ncnc2[nH]ccc(=O)c12)c1c(Cl)c2cccc(Sc3ccc(Cl)cc3)c2c(=O)n1-c1ccccc1 [Example 371, (S)-4-((1-(4-chloro-8-((4-chlorophenyl)thio)-1-oxo-2-phenyl-1,2-dihydroisoquinolin-3-yl)ethyl)amino)pyrido[2,3-d]pyrimidin-5(8H)-one]

— patent US20230072683A1, “PYRIDO-PYRIMIDIN DERIVATIVES AND PHARMACEUTICAL COMPOSITION, FOR USE IN PREVENTING OR TREATING PI3 KINASE RELATED DISEASES, COMPRISING SAME AS ACTIVE INGREDIENT” (BORYUNG PHARMACEUTICAL CO., LTD, priority 2019, published 2023)
